Results on two compounds are retold here after PMC4947684, “In Vivo and In Vitro Genotoxic and Epigenetic Effects of Two Types of Cola Beverages and Caffeine: A Multiassay Approach” (BioMed Research International, 2016).

pIC50: −log10 of the molar value. Like-named read-outs stand apart in the source and are kept apart here.

In data set [1] the test system is D. melanogaster larvae. Kind of data set: Antitoxicity assay (combined treatment with […] H2O2).
Procedure: (§2) Negative (H2O) and positive (0.15 M H2O2) toxicant concurrent controls were also assayed. Test groups consisted of larvae fed with Drosophila Instant Medium (Formula 4–24, Carolina Biological Supply, Burlington, NC) supplemented with the beverage concentrations tested. Emerging adults of all groups were counted and toxicity was determined as the percentage of hatched individuals in each treatment compared with the negative control. Antitoxicity was assessed using the same procedure and experimental concentrations as in toxicity assays, but in combined treatments with 0.15 M H2O2 and comparing the percentage of emerging adults with the positive toxicant control [34]. […] Negative control values were considered as those expected in Chi-square formula used in toxicity assay and positive control values in antitoxicity assays [35]. The same concentrations of toxicity and antitoxicity assays within the same substance were also compared.
Data set [2] concerns Drosophila melanogaster. Kind of data set: Genotoxicity, Drosophila wing spot test (SMART). To be noted: […] H2O2 alone.
Procedure: (§3) Genotoxicity assays were carried out following the wing spot test standard procedure [20]. Briefly, transheterozygous larvae for mwh and flr ^3 genes were obtained by crossing four-day-old virgin flr ^3 females with mwh males in a 2 : 1 ratio. Four days after fertilization, females were allowed to lay eggs in fresh yeast medium (25 g yeast and 4 mL sterile distilled water) for 8 h in order to obtain synchronised larvae. After 72 h, larvae were collected, washed with distilled water, and clustered in groups of 100 individuals. […] Adult flies were collected and stored in 70% ethanol until the wings were removed and mounted on slides using Faure's solution. Mutant spots were assessed in both dorsal and ventral surfaces of the wings in a bright light microscope at 400x magnification. The frequencies of each type of mutant clone per wing (single, large, or twin spot) were compared to the concurrent negative control and analysed applying the binomial Kastenbaum and Bowman Test [36]. Antigenotoxicity tests were performed following the method described by Anter et al. [37]. […] Single and twin spots per wing were also recorded and compared with the concurrent positive control as described before. The recombination percentage was calculated following Valadares et al. [38] procedure and the inhibition percentages (IP) for the combined treatments were calculated from the control-corrected frequencies of clone formation per 10^5 cells, according to Abraham [39]: IP = [(genotoxin alone − combined treatment)/genotoxin alone] × 100.
The subject of another data set is HL-60. On the set-up: method as in PMID 1311329. Conditions: at 5 mM; cited from earlier work.
Data set [3] has as its system D. melanogaster larvae.
Procedure: as §2
For another data set, the system named is LINE-1. Kind of data set: Methylation status of HL-60 cells (qMSP). The format is cell-based, human. To be noted: HL-60, 5 h, 0.51 mM. Here is the method: Then, DNA was extracted similarly to previously described DNA fragmentation assay. After that, the DNA was converted with bisulphite (EZ DNA Methylation-Gold™ Kit). Bisulphite-modified DNA was used for fluorescence-based real-time quantitative Methylation-Specific PCR (qMSP) using 5 μM of each forward and reverse primer (Isogen Life Science BV), 2 μL of iTaq™ Universal SYBR® Green Supermix (Bio-Rad, it contains antibody-mediated hot-start iTaq DNA polymerase, dNTPs, MgCl2, SYBR Green I Dye, enhancers, stabilizers, and a blend of passive reference dyes including ROX and fluorescein) and 25 ng of bisulphite converted genomic DNA. PCR conditions included initial denaturalisation at 95°C for 3 minutes and amplification which consisted of 45 cycles at 95°C for 10 seconds, 60°C for 15 seconds, and 72°C for 15 seconds, taking picture at the end of each elongation cycle. After that, melting curve was determined increasing 0.5°C each […] from 60°C to 95°C and taking pictures. QMSP was carried out in 48-well plates in MiniOpticon Real-Time PCR System (MJ Mini Personal Thermal Cycler, Bio-Rad) and were analysed by Bio-Rad CFX Manager 3.1 software. […] Alu-C4 and the target repetitive elements Alu M1, LINE-1, and Sat-α were obtained from Isogen Life Science and their sequences are shown in Table 1. Each sample was analysed in triplicate. The results of each CT were obtained from each qMSP. […]

In data set [4] the test system is Drosophila melanogaster. Kind of data set: Chronic treatments: lifespan and healthspan assays. Format: in vivo. Conditions: for Healthspan difference (%) / Mean lifespan difference (%): versus concurrent water control. On the procedure:
We also tested the same compounds and concentrations as in the toxicity/antitoxicity experiments. Lifespan assays were carried out at 25°C according to the procedure described by Fernandez-Bedmar et al.. Briefly, synchronised 72 ± 12-hour-old transheterozygous larvae were washed in distilled water, collected, and transferred in groups of 100 individuals into test vials containing 0.85 g Drosophila Instant Medium and 4 mL of the different concentrations of the compounds to be assayed. Emerged adults from pupae were collected under CO2 anaesthesia and placed in groups of 25 individuals of the same sex into sterile vials containing 0.21 g Drosophila Instant Medium and 1 mL of different concentrations of the compounds to be tested. Flies were chronically treated during all their life. The number of survivors was determined twice a week.

The subject of data set [5] is HL-60 cells. Nature of the data set: Cytotoxicity assay (trypan blue exclusion). Format: cell-based, human. Conditions: Homo sapiens; HL-60, highest tested concentration 20.4 mM; read-out: Inhibition of cell growth. Here is the method: (§1) Promyelocytic human leukaemia (HL-60) cells were grown in RPMI-1640 medium (Sigma, R5886) supplemented with heat-inactivated foetal bovine serum (Linus, S01805), L-glutamine 200 mM (Sigma, G7513), and 1x antibiotic-antimycotic solution (Sigma, A5955). Cells were incubated at 37°C in a humidified atmosphere of 5% CO2. Cultures were plated at 2.5 × 10^4 cells/mL density in 10 mL culture bottles and passed every 2 days. The effect of the assayed compounds on cell viability was determined by the trypan blue exclusion test according to our standard procedures. […] After culture, cells were stained with a 1 : 1 volume ratio of trypan blue dye (Sigma, T8154) and counted in a Neubauer chamber at 100x magnification. The survival percentage of each treatment compared with the control was recorded in three independent replicates.

A short description of data set [6]: Cytotoxicity assay (trypan blue exclusion). Format: cell-based, human. Conditions: human, HL-60 cells; HL-60, 72 h; read-out: IC50 (cytotoxicity), not reached at highest tested concentration. On the procedure: as §1
Data set [7] has as its system human breast cancer cells. More on the design: method as in PMID 25691730. To be noted: cited from earlier work.
The test system of data set [8] is Drosophila melanogaster. Nature of the data set: Antigenotoxicity, Drosophila wing spot test (SMART), combined with H2O2. Conditions: combined treatment with […] H2O2, mwh/flr3, 0.51 mM.
Procedure: as §3
Data set [9] deals with HL-60 cells. Nature of the data set: DNA fragmentation status (internucleosomal ladder). The format is cell-based, human. To be noted: HL-60, 5 h, any CAF treatment. On the procedure: The ability of our compounds to induce DNA fragmentation was determined as described by Anter et al.. […] After treatment, genomic DNA was extracted using a commercial kit (Blood Genomic DNA Extraction Mini Spin Kit, […] Biotech, Cordoba, Spain). Subsequently, DNA was incubated overnight with RNase at 37°C and quantified in a spectrophotometer (Nanodrop® ND-1000). Finally, 1200 ng DNA was electrophoresed in a 2% agarose gel for 120 min at 50 V, stained with ethidium bromide, and visualised under UV light. The apoptosis process is recognised by the appearance of internucleosomal DNA fragments that are multiple of 200 base pairs.

[10] abbreviates: mwh/TM3 balancers-heterozygous wings.

Turning to `OO` [H2O2, hydrogen peroxide], the “Survival (%) positive toxicant control” value with D. melanogaster larvae [1] ([…] H2O2 alone) is recorded as 46.66%. Besides, in the data set with Drosophila melanogaster [2] (setting [10]), the “Clones per wings: large simple spots (>2 cells) m = 5” value (“Clones per wings: large simple spots” for short) is on record as 0.013 (1) clones/wing and the “Clones per wings: small single spots (1-2 cells) m = 2” value (shortened to “Clones per wings: small single spots”) is 0.188 (15) clones/wing. Moreover, the “Frequency of clone formation per 10^5 cells, observed” value (from here on “Frequency … per 10^5 cells, observed”) in the data set with Drosophila melanogaster [2] (mwh/TM3 wings) was 0.819 per 10^5 cells. For the same compound, in the data set on Drosophila melanogaster [2] (mwh/flr3 wings), the “Clones per wings: large simple spots” value is given as 0.088 (7) clones/wing, the “Clones per wings: small single spots” value is listed as 0.313 (25) clones/wing, the “Clones per wings: total spots m = 2” value stood at 0.438 clones/wing and the “Clones per wings: twin spots m = 5” value is 0.038 (3) clones/wing. For the same compound, in the data set on Drosophila melanogaster [2] (mwh/flr3 wings), the “Frequency of clone formation per 10^5 cells, control corrected” value turned out to be 0.717 per 10^5 cells and the “Frequency … per 10^5 cells, observed” value is given as 1.795 per 10^5 cells. In the data set with Drosophila melanogaster [2] (mwh/flr3 wings, versus negative control), the “Statistical diagnosis of total spots” value is listed as “+”.
In the case of `Cn1c(=O)c2c(ncn2C)n(C)c1=O` [CAF, 1,3,7-trimethylpurine-2,6-dione], the “Growth inhibition (in words)” value in the data set on HL-60 was “inhibited HL-60 growth”. The “Survival (%) simple treatment” value in the data set on D. melanogaster larvae [3] (0.004 mM), with D. melanogaster larvae [3] (0.032 mM), in the data set with D. melanogaster larvae [3] (0.127 mM) and in the data set on D. melanogaster larvae [3] (0.51 mM) was 100% throughout. Also, the Methylation status result in the data set on LINE-1 is on record as “decrease of methylation status”. Also, the “Healthspan (80th percentile) (days)” value in the data set with Drosophila melanogaster [4] (0.004 mM, mean ± SE) was 47 ± 2.65^∗∗ days. The “Mean lifespan” value with Drosophila melanogaster [4] (0.004 mM, mean ± SE) turned out to be 62.88 ± 1.7 days; in the data set on Drosophila melanogaster [4] (0.51 mM, mean ± SE), 61.14 ± 2.07 days. Moreover, the “Healthspan difference (%)” value in the data set on Drosophila melanogaster [4] (0.004 mM) is on record as 55.73%; with Drosophila melanogaster [4] (0.032 mM), 40.32%; with Drosophila melanogaster [4] (0.127 mM), 22.23%; with Drosophila melanogaster [4] (0.51 mM), 26.41%. Moreover, the “Mean lifespan difference (%)” value came out at 6.87% in the data set on Drosophila melanogaster [4] (0.004 mM), 17.02% in the data set with Drosophila melanogaster [4] (0.032 mM), 20.52% in the data set on Drosophila melanogaster [4] (0.127 mM) and 3.91% with Drosophila melanogaster [4] (0.51 mM). For the same compound, the “Mean lifespan (days)” value in the data set with Drosophila melanogaster [4] (0.032 mM, mean ± SE) is on record as 68.86 ± 2.38^∗∗ days; in the data set on Drosophila melanogaster [4] (0.127 mM, mean ± SE), 70.91 ± 2.99^∗∗∗ days. Moreover, the “Drosophila lifespan increase, on average” value with Drosophila melanogaster [4] (on average) was “more than 15%”. The inhibition at 20400 µM with HL-60 cells [5] is around 40%. Also, in [6], the IC50 at 72 h is above 20.4 mM. Further, the “Survival (%) combined treatment” value is 54^Δ % in the data set on D. melanogaster larvae [1] (0.004 mM + […] hydrogen peroxide), 51^Δ % with D. melanogaster larvae [1] (0.032 mM + […] hydrogen peroxide), 54.66^Δ % with D. melanogaster larvae [1] (0.127 mM + […] hydrogen peroxide) and 51.33^Δ % in the data set on D. melanogaster larvae [1] (0.51 mM + […] hydrogen peroxide). Further, the pIC50 in data set [7] was around 2.30. In addition, the “Clones per wings: large simple spots” value in the data set on Drosophila melanogaster [8] is 0.125 (10) clones/wing. Further, the “Clones per wings: small single spots” value in the data set on Drosophila melanogaster [8] is listed as 0.325 (26) clones/wing. The “Clones per wings: total spots m = 2” value in the data set on Drosophila melanogaster [8] was found to be 0.45 clones/wing. The “Clones per wings: twin spots m = 5” value with Drosophila melanogaster [8] was found to be 0 clones/wing. Also, in the data set on Drosophila melanogaster [8], the “Frequency of clone formation per 10^5 cells, control corrected” value amounted to 0.766 per 10^5 cells. In addition, the “Frequency … per 10^5 cells, observed” value with Drosophila melanogaster [8] amounted to 1.844 per 10^5 cells. Besides, the “Ladder pattern of fragmented internucleosomal DNA” value with HL-60 cells [9] was “not observed”.
